Values quoted from earlier work in patent publication US10858388B2, “Selective progesterone receptor modulator (SPRM) regimen” (BAYER PHARMA AKTIENGESELLSCHAFT, priority 2015, dated 2020).

How the values were obtained:
endometrium = details: relatively low concentration, WO2009/134178; cited from earlier work
[1] = test system: women with excessive uterine bleeding due to the presence of fibroids; details: 5 mg Ulipristal Acetate, cited from earlier work
fibroids = details: in vivo; cited from earlier work

COCC(=O)[C@@]1(OC(C)=O)CC[C@H]2[C@@H]3CCC4=CC(=O)CCC4=C3[C@@H](c3ccc(N(C)C)cc3)C[C@@]21C [CDB-4124]
Endometrium during treatment (endometrium): substantial thickening of the endometrium

CC(=O)O[C@]1(C(C)=O)CC[C@H]2[C@@H]3CCC4=CC(=O)CCC4=C3[C@@H](c3ccc(N(C)C)cc3)C[C@@]21C [Ulipristal Acetate]
≤2 ml, indicating Amenorrhea - (%), EoT 13 Weeks ([1]; 13 weeks): 75%
≤2 ml, indicating Amenorrhea - no./total no., EoT 13 Weeks ([1]; 13 weeks): 70/93
Amenorrhea (<2 ml) at EoT (%) 12 Weeks ([1]; data from Jacques Donnez et al): ~75%

CC#C[C@]1(O)CC[C@H]2[C@@H]3CCC4=CC(=O)CCC4=C3[C@@H](c3ccc(N(C)C)cc3)C[C@@]21C [mifepristone]
Size of fibroids and related symptoms (fibroids): decrease the size of fibroids and related symptoms
